The values that follow come from publication PMC11172862, “Mechanistic and Structural Insights on Difluoromethyl-1,3,4-oxadiazole Inhibitors of HDAC6” (International Journal of Molecular Sciences, 2024).

Where two headings read alike, the source gives them in different places.

Test [1] deals with T1, second catalytic domain of zebrafish HDAC6 (zHDAC6-CD2) (Danio rerio, UniProt F8W4B7).
T1 construct: 8xHis-MBP (TEV-cleavable) (N, cleaved yes); made in house; host or cells: E. coli
T1 sequence (F8W4B7 440-798): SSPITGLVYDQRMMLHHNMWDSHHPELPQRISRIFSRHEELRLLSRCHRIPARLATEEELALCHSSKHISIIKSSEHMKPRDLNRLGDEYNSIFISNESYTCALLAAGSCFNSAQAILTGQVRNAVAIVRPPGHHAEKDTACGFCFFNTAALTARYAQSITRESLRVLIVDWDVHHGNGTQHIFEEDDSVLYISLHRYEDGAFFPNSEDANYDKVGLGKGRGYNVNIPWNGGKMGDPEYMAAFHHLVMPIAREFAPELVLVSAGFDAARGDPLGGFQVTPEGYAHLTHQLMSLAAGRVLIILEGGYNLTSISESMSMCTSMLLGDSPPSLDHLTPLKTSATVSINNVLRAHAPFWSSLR
Description: Fluorometric HDAC activity assay (Fluor de Lys Green), zHDAC6-CD2. Conditions: for IC50: 25 °C, 3 µM Fluor de Lys Green, read-out: HDACs IC50, zHDAC6-CD2. It is filed as biochemical. The procedure: (§1) Optimized fluorometric enzymatic assays were used as previously reported (5, 6). Briefly, the time-course of the reaction was monitored at 25 °C in HDAC assay buffer [25 mM Tris/HCl, pH 8.0, 130 mM NaCl, 0.05% Tween-20, 10% Glycerol, 1 mg/mL bovine serum albumin (BSA), 0.5 mM tris(2-carboxyethyl)phosphine (TCEP) and 1% DMSO]. Human HDAC1 (Catalog 50051, BPS Bioscience, San Diego, CA, USA), human HDAC6 (Catalog 50006, BPS Bioscience, San Diego, CA, USA) and the second catalytic domain of zebrafish HDAC6 (zHDAC6-CD2) were used at catalytic concentrations of 710 pM, 62.5-125 pM and 0.12 nM, respectively. The Fluor de Lys Green substrate (Enzo Life Sciences, Farmingdale, New York, USA) was included at a concentration close to the Km value, 3 µM for HDAC6 forms and 25 µM for HDAC1. For fast binding inhibitors, the initial velocity (vo) was calculated as (∆F/min) from the slope of the straight line fitting the data points. In the case […]
velocity (vi), the steady-state velocity at long reaction times (vs), and the apparent first-order rate constant (kobs). In Eq 1, P is the product concentration, expressed as fluorescence intensity and t is the reaction time (in minutes) (7). All progress curves are generated by using GraphPad Prism software (version 10.2.2, La Jolla, CA, USA). For IC50 determination, vo for fast-on inhibitors or vs for slow-on compounds were used to calculate the inhibition, as percentage with respect to the value
(1 picture or pasted object on this page, not shown here) […]
(§2) obtained in the absence of inhibitor. Such inhibition data were fitted in the GraphPad Prism software (version 10.2.2, La Jolla, CA, USA) using nonlinear regression analysis.
(§3) Eq. 1 P = v௦ ∙t + (vi − vs )[1 − exp(−kobs ∙t)] / kobs
(§4) In Eq. 1, P is the product concentration, expressed as fluorescence intensity, and t is the reaction time (in minutes) (7). For the determination of IC50 values, vo for fast-on inhibitors or vs for slow-on compounds were used to calculate the inhibition, as percentage with respect to the value obtained in the absence of inhibitor. Such inhibition data were fitted in GraphPad Prism software (version 10.2.2, La Jolla, CA, USA) using nonlinear regression analysis. […]
(§5) kobs values on inhibitor concentration was used to determine the mechanism of inhibition. “One-step” or a “two-step” (or “induced-fit) processes are the most common mechanisms of slow binding inhibition (Figure S2) and the resulting “kobs plots” should be linear for mechanism A and hyperbolic […]
to equation 2, assuming the validity of mechanism B, where Ki is the dissociation constant of the initial EI complex, whereas k2 and k-2 are the rate constants describing the formation of the tight EI* complex. IC50 reflects the dissociation constant of the EI* complex (Ki*). […]
Samples were kept frozen at -80 °C until the LC-HRMS analysis. The experiment was performed in […]
(ITF6715, ITF7738) and hydrazide (ITF6712, ITF7739) derivatives in the samples was performed with respect to calibration curves obtained with varying concentrations of each compound. Raw data were then imported into GraphPad Prism (version 10.2.2, La Jolla, CA, USA) to generate Figure 4.
The LC-HRMS analysis was carried out using a Vanquish Flex UHPLC (Thermo Fisher Scientific, Waltham, Massachusetts, USA) and a high-resolution mass spectrometer Orbitrap QExactive Focus (Thermo Fisher Scientific, Waltham, Massachusetts, USA), equipped with a Heated Electrospray Ionization, operated in positive mode. A Full Scan analysis was set in the m/z range 50-500 amu. A XSelect HSS T3 50x2.1 mm, 2.5 µm chromatographic column (Waters, Milford, Massachusetts, USA) was used. Mobile phase A consisted of 0.1% formic acid in water and mobile phase B in 0.1% formic acid in acetonitrile. The flow rate was set to 0.5 mL/min, with a gradient program from 3 to 20% B in 3 minutes. The software Chromeleon CDS (version 7.3.2, Thermo Fisher Scientific, Waltham, Massachusetts, USA) was used for acquisition, processing, and signal integration. […]

Test [2] addresses T2, human HDAC6 (Homo sapiens, UniProt Q9UBN7).
T2 construct: purchased BPS Bioscience 50006
T2 sequence (Q9UBN7 1-1215): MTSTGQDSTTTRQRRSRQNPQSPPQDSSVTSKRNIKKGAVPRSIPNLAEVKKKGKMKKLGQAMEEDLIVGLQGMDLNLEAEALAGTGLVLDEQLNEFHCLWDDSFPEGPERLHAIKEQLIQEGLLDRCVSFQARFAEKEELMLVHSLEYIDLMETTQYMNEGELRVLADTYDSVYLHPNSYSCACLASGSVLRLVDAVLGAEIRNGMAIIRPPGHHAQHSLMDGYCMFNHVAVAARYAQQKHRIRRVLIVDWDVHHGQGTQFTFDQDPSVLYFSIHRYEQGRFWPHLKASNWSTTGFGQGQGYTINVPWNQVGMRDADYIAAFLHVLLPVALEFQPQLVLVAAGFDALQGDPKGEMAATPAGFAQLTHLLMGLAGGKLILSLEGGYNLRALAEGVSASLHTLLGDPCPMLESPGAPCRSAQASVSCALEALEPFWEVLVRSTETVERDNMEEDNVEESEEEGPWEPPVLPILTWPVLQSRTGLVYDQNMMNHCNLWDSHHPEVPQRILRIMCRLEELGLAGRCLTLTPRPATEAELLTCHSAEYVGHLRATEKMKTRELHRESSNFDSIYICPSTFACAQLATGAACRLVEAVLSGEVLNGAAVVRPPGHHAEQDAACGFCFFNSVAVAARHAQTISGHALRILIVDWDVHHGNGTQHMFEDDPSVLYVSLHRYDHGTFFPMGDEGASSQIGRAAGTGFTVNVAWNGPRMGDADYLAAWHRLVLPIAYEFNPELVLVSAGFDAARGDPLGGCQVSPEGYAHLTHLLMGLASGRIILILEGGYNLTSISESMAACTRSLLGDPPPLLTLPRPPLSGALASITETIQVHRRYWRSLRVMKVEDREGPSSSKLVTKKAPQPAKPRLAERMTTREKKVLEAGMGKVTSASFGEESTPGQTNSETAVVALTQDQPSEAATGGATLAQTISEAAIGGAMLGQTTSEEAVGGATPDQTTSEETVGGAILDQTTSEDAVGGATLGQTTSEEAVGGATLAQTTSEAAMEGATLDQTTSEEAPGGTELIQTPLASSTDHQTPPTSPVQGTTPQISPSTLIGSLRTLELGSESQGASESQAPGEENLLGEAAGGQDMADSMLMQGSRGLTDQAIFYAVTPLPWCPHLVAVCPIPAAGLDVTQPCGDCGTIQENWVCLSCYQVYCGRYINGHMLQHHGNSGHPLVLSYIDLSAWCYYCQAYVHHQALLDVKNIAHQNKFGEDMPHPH
Description: Fluorometric HDAC activity assay (Fluor de Lys Green), human full-length HDAC6. In kind it is biochemical. The conditions noted are these: for IC50: human full-length HDAC6, 25 °C, 3 µM Fluor de Lys Green, read-out: HDACs IC50, HDAC6. The procedure: as §1
velocity (vi), the steady-state velocity at long reaction times (vs), and the apparent first-order rate constant (kobs). In Eq 1, P is the product concentration, expressed as fluorescence intensity and t is the reaction time (in minutes) (7). All progress curves are generated by using GraphPad Prism software (version 10.2.2, La Jolla, CA, USA). For IC50 determination, vo for fast-on inhibitors or vs for slow-on compounds were used to calculate the inhibition, as percentage with respect to the value […]
as §2, §3, §4, §5
to equation 2, assuming the validity of mechanism B, where Ki is the dissociation constant of the […]

Test [3] has as its target T3, Human HDAC1 (Homo sapiens, UniProt Q13547).
T3 construct: purchased BPS Bioscience 50051
Description: Fluorometric HDAC activity assay (Fluor de Lys Green), human HDAC1. It is filed as biochemical. Conditions: 25 °C, 25 µM Fluor de Lys Green; read-out: HDACs IC50, HDAC1. The procedure: as §1
velocity (vi), the steady-state velocity at long reaction times (vs), and the apparent first-order rate constant (kobs). In Eq 1, P is the product concentration, expressed as fluorescence intensity and t is the reaction time (in minutes) (7). […]
In Eq. 1, P is the product concentration, expressed as fluorescence intensity, and t is the reaction time (in minutes) (7). […]

Test [4] addresses T3, Human HDAC1. Also on record: method as in PMID 36528061. Conditions: included for comparison; ref [22]; read-out: HDACs IC50, HDAC1; cited from earlier work.
In test [5] the target is T4, zHDAC6-CD2 (Danio rerio, UniProt F8W4B7).
T4 construct: 8xHis-MBP (TEV-cleavable) (N, cleaved yes); made in house; host or cells: E. coli
T4 sequence (F8W4B7 440-798): T1 sequence (F8W4B7 440-798)
Put plainly: LC-MS time course of DFMO hydrolysis by zHDAC6-CD2. In kind it is biochemical, zebrafish. Conditions: absence of competitor. The procedure: In order to achieve a fast and sufficient conversion of DFMO to DFAcH before the addition of the competitor, and to minimize its effect on the first hydrolysis step, ITF3756 was added after a very short DFMO–enzyme pre-incubation (1 min). Subsequently, at each time point (Figure 4), an aliquot of the reaction mixture was mixed with acetonitrile to unfold the protein and quench the enzymatic activity. Each aliquot was analyzed by liquid LC-MS to determine the compound concentrations.
Experiments like those shown in panel A and C were carried out in the presence of 100 μM ITF3756, which was added after 1 min of ITF5924-enzyme (B) or ITF7209-enzyme (D) pre-incubation. All the experiments were carried out in triplicate. The lines simply join the average values of the experimental points. The incomplete recovery could be attributed to the relatively high enzyme concentration, possibly resulting in coprecipitation phenomena upon the addition of acetonitrile. […]
as §2, §3, §4, §5

Test [6] deals with T1, second catalytic domain of zebrafish HDAC6 (zHDAC6-CD2). Also on record: method as in PMID 36528061. Conditions: included for comparison; ref [22]; read-out: HDACs IC50, zHDAC6-CD2; cited from earlier work.
Test [7] deals with T2, human HDAC6. The arrangement: method as in PMID 36528061. Conditions: included for comparison; ref [22]; read-out: HDACs IC50, HDAC6; cited from earlier work.
Where [8] appears, read: 5 µM DFMO, 5 µM zHDAC6-CD2, 25 °C.

T3 sequence (Q13547 whole entry): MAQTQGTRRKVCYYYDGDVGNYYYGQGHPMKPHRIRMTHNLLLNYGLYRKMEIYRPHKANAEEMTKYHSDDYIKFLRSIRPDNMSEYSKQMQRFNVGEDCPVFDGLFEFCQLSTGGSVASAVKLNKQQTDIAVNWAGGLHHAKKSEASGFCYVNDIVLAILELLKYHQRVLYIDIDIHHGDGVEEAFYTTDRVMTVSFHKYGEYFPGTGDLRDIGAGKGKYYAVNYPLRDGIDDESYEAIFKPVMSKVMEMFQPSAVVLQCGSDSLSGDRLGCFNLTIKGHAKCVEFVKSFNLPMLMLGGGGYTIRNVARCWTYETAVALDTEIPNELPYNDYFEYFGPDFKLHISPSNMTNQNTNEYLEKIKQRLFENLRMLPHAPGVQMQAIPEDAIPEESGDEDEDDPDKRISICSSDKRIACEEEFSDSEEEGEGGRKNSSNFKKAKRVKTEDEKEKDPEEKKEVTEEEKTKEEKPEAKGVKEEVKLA

The term IC50 denotes the concentration that gives 50% inhibition. On to `CC(C)(C)c1cn(Cc2ccc(C(=O)NNC(=O)C(F)F)s2)nn1` [ITF7738], for which the IC50 in test [1] is 72000 nM; in test [2], over 100000 nM; in test [3], over 100000 nM.
Consider `FC(F)c1nnc(-c2ccc(Cn3cc(-c4ccc(NC5=NCCN5)cc4)nn3)cc2)o1` [ITF5924], for which the IC50 is over 100000 nM in test [4], 7.8 ± 0.4 nM in test [6] and 7.7 ± 0.3 nM in test [7]. Further, the “Time after which DFMO substantially disappeared” value in test [5] (setting [8]) stood at 10 min.
Turning to `O=C(NNC(=O)C(F)F)c1ccc(Cn2cc(-c3ccc(NC4=NCCN4)cc3)nn2)cc1` [ITF6715], the IC50 is over 100000 nM in test [4], 2300 nM in test [6] and 1600 nM in test [7].
For the compound `CC(C)(C)c1cn(Cc2ccc(C(=O)NN)s2)nn1` [ITF7739], the figures for the IC50 in test [1], in test [2] and in test [3] were 1000 nM, 5100 nM and over 100000 nM, respectively.
For `NNC(=O)c1ccc(Cn2cc(-c3ccc(NC4=NCCN4)cc3)nn2)cc1` [ITF6712], the figures for the IC50 in test [4] and in test [7] were over 100000 nM and 330 nM, respectively. Besides, the “Amount of hydrazide product detectable” value in test [5] (hydrolysis of 5 µM ITF5924 by 5 µM zHDAC6-CD2, 25 °C) is on record as 13%.
One may read the Ki as the equilibrium dissociation constant of an inhibitor or competing ligand from its target. Take `CC(C)(C)c1cn(Cc2ccc(-c3nnc(C(F)F)o3)s2)nn1` [ITF7209]: the IC50 in test [1] turned out to be 6.7 ± 0.4 nM. Also, the Mode of inhibition entry in test [1] (zHDAC6-CD2, progress curves) is “slow binding inhibitor”; in test [2] (human full-length HDAC6, progress curves), “slow binding inhibitor”. Moreover, the “k2 (rate constant, formation of the tight EI* complex)” value came to 0.86 ± 0.02 min⁻¹ in test [1] (zHDAC6-CD2, fit of kobs to Eq. 2) and 0.52 ± 0.01 min⁻¹ in test [2] (human HDAC6, fit of kobs to Eq. 2). The Ki in test [1] (zHDAC6-CD2, fit of kobs to Eq. 2, induced-fit model, read-out: Ki (dissociation constant of the initial EI complex)) stood at 980 ± 40 nM. For the same compound, in test [5] (setting [8]), the “Rate of DFMO consumption compared to ITF5924” value was “slower rate of DFMO consumption”.
